Consider three compounds from patent publication US20120238488A1, “COMPOUNDS AND METHODS FOR TREATING NEOPLASIA” (priority 2009, published 2012).

The subject of data set [1] is membrane androgen receptor. Nature of the data set: Membrane androgen receptor competition assay, DU145 cells. The data set is classed as binding. The note with it: 40 μM compound 30 minutes before 40 μM testosterone-HSA-FITC, FIGS. 3B, 3C. The text has this:
To assess whether compounds of the invention were capable of binding directly to the membrane androgen receptor, a fluorescent-based assay was used to measure the ability of a given compound to preclude binding of a fluorescent mAR ligand (testosterone-HSA-FITC conjugates) to its receptor in LNCaP and DU145 cells (see Kampa, M et al, 2002, Faseb J 16:1429-1431, and PCT/U52007/007913).
The detection of membrane androgen receptors using fluorescent testosterone-serum albumin conjugates was performed as described by Kampa, M et al, 2002, Faseb J 16:1429-1431, with minor modifications. Briefly, LNCaP or DU145 prostate cancer cells were cultured on 0.1% gelatin-coated glass coverslips in RPMI 1640 medium supplemented with 2 mM L-Glutamine, 10% Fetal Bovine Serum and 1% Penicillin/Streptomycin for at least 48 hours until reaching 70% confluency. After a 24 hour serum starvation period, cells were incubated with 40 μM testosterone-HSA-FITC for 1 hour at room temperature. The cells were then washed three times with phosphate buffered saline (PBS) and fixed with 3.7% formaldehyde in PBS for 5 minutes at room temperature. Human serum albumin-FITC was used as a control for background staining. […] Coverslips were mounted on slides by using the Slow Fade/Antifade Reagent (Molecular Probes) and studied under a LEICA DMLB microscope, equipped with the appropriate fluorescence filters and a Leica DC 300F camera. Specimens were analyzed using the Leica FW4000 computer program.
To determine the capacity of a given compound to preclude binding of fluorescent testosterone-HSA conjugates (TAC) to the membrane androgen receptor, starved LNCaP or DU145 cells on coverslips prepared as described above were pre-treated with 40 μM of the indicated compound for 30 minutes prior to the addition of testosterone-HSA-FITC. […] Specimens were prepared and analyzed as described above. Compounds binding to the membrane androgen receptor preclude binding of fluorescent testosterone-HSA conjugates to their target and abolish membrane-specific fluorescence.

The test system of data set [2] is A549 xenografts (lung carcinoma). Nature of the data set: A549 xenograft anti-tumor activity. The data set is classed as in vivo, Nod/Scid mice. As to conditions: for DT/DC / post mortem analysis on excised tumors: tumor growth inhibition: A549 xenografts, compound 56 20 mgk, paclitaxel 18 mgk; for DT/DC: day 24, intraperitoneal. The protocol:
All administrations were intraperitoneal.
At day 20 post inoculation (dpi), mean tumor volume was measured at 117.6 mm^3.
Compound 56 was administered intraperitoneallly using a [(QD×5;2) ×5] scheme. Paclitaxel, used as a positive control, was injected twice weekly for 5 cycles (Tuesday & Friday).

Data set [3] deals with DU145 prostate cancer cells. Nature of the data set: MTT assay, combination with paclitaxel. As to conditions: DU145, FIG. 1E. The protocol:
Cell proliferation/viability was assessed by the MTT [3-(4,5-dimethylthiazol-2-yl)-2,5-diphenyltetrazolium bromide] assay, which is commercially available (Sigma, St. Louis, Mo.). Cells were cultured in 96-well plates for twenty-four hours (7-10.000 cells/well) and incubated with various concentrations of the compounds of the invention in serum-containing medium (or left untreated) for seventy-two hours. At the end of incubation, the medium was aspirated and MTT dissolved in RPMI 1640 w/o phenol red was added to each well to a final concentration of 0.25 mg/ml. After four hours incubation in the dark (37° C., 5% CO2) the supernatant was discarded. The converted dye (blue formazan crystals) was solubilized by adding 200 μl dimethylsulfoxide to each well. Absorbance was measured at 550 nm with reference at 655 nm using a spectrophotometer with the respective filters. All assays were performed in triplicate.

The test system of the next data set is T470 (Breast). The experiment in a line: SRB assay, T470. It is filed as cell-based, human. As to conditions: 48 h. The protocol: SRB assays were performed according to standard National Cancer Institute Guidelines. Briefly, human tumor cells from different cancer panels were seeded into 96 well plates in 100 μL (plating densities ranging from 5-40,000 cells/well depending on the doubling time of individual cell lines) in serum-containing media for twenty-four hours prior to the addition of the compounds to be assayed. After 24 hours, one plate of each cell line was fixed in situ with trichloroacetic acid (TCA). The fixed slides were used to determine the cell population for each cell line at the time of drug addition (Tz). Each compound to be tested was solubilized in DMSO and the desired concentration was then added to the medium and diluted serially 1:10 to provide a total of five or ten drug concentrations plus control (in a final volume of 200 μL). The starting dose before any dilution was 100 uM for all compounds.
Following drug addition, each culture was incubated for forty-eight hours. The assay was terminated with the addition of cold TCA. The supernatant was discarded, and the plates were washed with tap water and air dried. Sulforhodamine B (SRB) solution was then added to each well. After staining, the bound stain was solubilized and the absorbance was read on an automated plate reader at a wavelength of 515 nm.
Using the absorbance measurements [time zero, (Tz), control growth, (C), and test growth in the presence of drug at the ten concentration levels (Ti)], the percentage growth was calculated at each of the drug concentrations levels. Percentage growth inhibition was calculated as:
[(Ti−Tz)/(C−Tz)]×100 for concentrations for which Ti>/=Tz […]
Three dose response parameters were calculated for each experimental agent. […] The drug concentration resulting in total growth inhibition (TGI) was calculated from Ti=Tz. […]
Values were calculated for each of these three parameters when the level of activity was reached; however, if the effect was not reached or was exceeded, the value for that parameter was expressed as greater or less than the maximum or minimum concentration tested. […]

For the compound `C[C@]12CCC(=NOC3CCNC3)CC1CCC1C2CC[C@]2(C)C(=O)CCC12` (stereo partly drawn) [Compound 56, (10S,13S)-10,13-dimethyl-3-(pyrrolidin-3-yloxyimino)tetradecahydro-1H-cyclopenta[a]phenanthren-17(2H)-one], the “membrane fluorescence of TAC-FITC after pre-treatment (binding to mAR precluded)” value in data set [1] is “devoid of membrane fluorescence”. In data set [2] (A549 xenograft mice, 20 mgk intraperitoneal), the weight changes result is “no significant weight changes”. Besides, in data set [2], the DT/DC was −10.47% and the “post mortem analysis on excised tumors: tumor growth inhibition” value is reported as “statistical significant tumor growth inhibition”. The “anti-tumor activity in A549 xenografts (FIG. 2B)” value in data set [2] (mouse, in vivo) is listed as “has anti-tumor activities”.
With `CC(=O)O[C@H]1C(=O)[C@@]2(C)[C@H]([C@H](OC(=O)c3ccccc3)[C@]3(O)C[C@H](OC(=O)[C@H](O)[C@@H](NC(=O)c4ccccc4)c4ccccc4)C(C)=C1C3(C)C)[C@]1(OC(C)=O)CO[C@@H]1C[C@@H]2O` [Paclitaxel, reference compound], in data set [2], the DT/DC was −46,68% and the “post mortem analysis on excised tumors: tumor growth inhibition” value is recorded as “statistical significant tumor growth inhibition”. The cytotoxic activity alone entry in data set [3] (paclitaxel 20 nM) is “limited cytotoxic activity”.
Turning to `C[C@]12CCC(=NOCCN)C=C1CCC1C2CC[C@]2(C)C(=O)CCC12` (stereo partly drawn) [Compound 12, (10R,13S)-3-(2-aminoethoxyimino)-10,13-dimethyl-2,3,7,8,9,10,11,12,13,14,15,16-dodecahydro-1H-cyclopenta[a]phenanthren-17(6H)-one], the CC50 in the data set with T470 (Breast) (Homo sapiens, read-out: LC50) was determined as 69.6 µM. This compound registered a 50% growth inhibitory concentration (GI50) in the data set with T470 (Breast) (Homo sapiens, T470, SRB) of 5.98 µM. The TGI with T470 (Breast) (T470, SRB) was determined as 26.42 µM. Also, the “membrane fluorescence of TAC-FITC after pre-treatment (binding to mAR precluded)” value in data set [1] was “devoid of membrane fluorescence”. Moreover, the “enhancement of the cytotoxic action of paclitaxel” value in data set [3] (1 or 2 uM compound 12 added to paclitaxel 20 nM) is given as “clearly enhances the cytotoxic action”.
